The values below come from ChEMBL document CHEMBL1201862, “PubChem BioAssay data set” (2004).

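Exposure lasted 48 hours, with cells grown in 96-well plates and compounds tested at five concentrations. GI50 marks 50% less growth.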 Active and inactive are the calls of the source. Rule as the data show it: active = GI50 up to about 1.1 µM and inactive = higher.

Test systems include A549; COLO 205; EKVX; HCC 2998; HCT-116; HCT-15; IGROV-1; KM12; NCI-H23; OVCAR-3; RPMI-8226; SK-MEL-28; SK-MEL-2; UACC-62; HL-60; HOP-92; MOLT-4; SK-MEL-5; UACC-257; HOP-62.
Assay in all cases: inhibition of tumour cell growth, NCI panel, 48 h

In the case of `O=C(O)c1ccc([Se][Se]c2ccc(C(=O)O)cc2)cc1`, the GI50 in the assay on A549 is 25.8 µM (inactive); in the assay on COLO 205 it was 32.9 µM (inactive); in the assay on EKVX, 23.6 µM (inactive); in the assay with HCC 2998 it was 35.9 µM (inactive); in the assay with HCT-116, 18.1 µM (inactive); with HCT-15 it was 35.6 µM. Also, the GI50 in the assay on IGROV-1 is 30.4 µM (inactive); with KM12, 29 µM (inactive); in the assay on NCI-H23, 19.3 µM (inactive); in the assay on OVCAR-3, 22.5 µM (inactive); with RPMI-8226, 21.2 µM (inactive); in the assay on SK-MEL-28 it was 20.7 µM (inactive). For the same compound, the GI50 was 27.4 µM (inactive) in the assay with SK-MEL-2 and 19.3 µM (inactive) in the assay with UACC-62.

On to `C=CCN1C(N)=C(C(N)=O)S/C1=C1/SC(=S)N(c2ccc(C)cc2)C1=O`, for which the GI50 in the assay with A549, in the assay on COLO 205, with HCT-116, in the assay with HL-60, in the assay with HOP-92 and in the assay on IGROV-1 was > 100 µM (inactive) throughout. Besides, the GI50 in the assay on KM12 is > 100 µM (inactive); with MOLT-4, > 100 µM (inactive); in the assay with NCI-H23, 65.3 µM (inactive); in the assay on OVCAR-3 it was > 100 µM (inactive); in the assay on RPMI-8226, > 100 µM (inactive); in the assay on SK-MEL-28, > 100 µM (inactive). In addition, the GI50 in the assay with SK-MEL-2, in the assay on SK-MEL-5, with UACC-257 and in the assay with UACC-62 was > 100 µM (inactive) throughout.

Consider `O=C1N=C(SC(SC2=NC(=O)C3(NN2)c2ccccc2-c2ccccc23)=C(SC2=NC(=O)C3(NN2)c2ccccc2-c2ccccc23)SC2=NC(=O)C3(NN2)c2ccccc2-c2ccccc23)NNC12c1ccccc1-c1ccccc12`, for which the GI50 is 6.65 µM (inactive) with A549; 7.21 µM (inactive) with COLO 205; 2.59 µM (inactive) in the assay with EKVX; > 10 µM (inactive) in the assay on HCC 2998; 5.55 µM (inactive) in the assay with HCT-116; 3.62 µM with HCT-15. For the same compound, the GI50 in the assay with HOP-62 is > 10 µM (inactive); in the assay with HOP-92 it was > 10 µM (inactive); with IGROV-1, 8.2 µM (inactive); with KM12 it was 9.29 µM (inactive); in the assay on MOLT-4, 0.437 µM (active); with NCI-H23 it was 7.59 µM (inactive). The GI50 in the assay with RPMI-8226 is 3.59 µM (inactive); in the assay with SK-MEL-28 it was > 10 µM (inactive); with SK-MEL-5, 3.22 µM (inactive); with UACC-257, 5.64 µM (inactive); in the assay on UACC-62 it was 6.53 µM (inactive).

Consider `COc1ccc(CNc2nc3cc(C(F)(F)F)ccc3nc2C)cc1OC`, for which the GI50 in the assay on A549 is 32.1 µM (inactive); in the assay with COLO 205, 32.9 µM (inactive); with EKVX, 20.2 µM (inactive); with HCC 2998, 17.9 µM (inactive); with HCT-116, 26.2 µM (inactive); in the assay on HCT-15, 34.8 µM. For the same compound, the GI50 in the assay with HL-60 is 19.9 µM (inactive); in the assay on HOP-62, 20.8 µM (inactive); in the assay on IGROV-1 it was 31 µM (inactive); with KM12, 23.7 µM (inactive); in the assay with MOLT-4, 17.3 µM (inactive); in the assay with NCI-H23 it was 35.7 µM (inactive). The GI50 in the assay with OVCAR-3 was 32.5 µM (inactive); with RPMI-8226, 27.1 µM (inactive); in the assay with SK-MEL-28, 44.1 µM (inactive); in the assay with SK-MEL-2, 19.5 µM (inactive); with SK-MEL-5, 17.3 µM (inactive); in the assay on UACC-257, 19 µM (inactive). The GI50 with UACC-62 is 31.6 µM (inactive).

Consider `COP(=O)(OC)C(N)CCSC` (configuration not stated), for which the GI50 was > 100 µM (inactive) in the assay on A549; > 100 µM (inactive) in the assay on COLO 205; > 100 µM (inactive) in the assay on EKVX; > 100 µM (inactive) in the assay on HCT-116; more than 100 µM in the assay with HCT-15; > 100 µM (inactive) in the assay on HL-60. Besides, the GI50 in the assay with HOP-62, in the assay on HOP-92, in the assay with IGROV-1, with KM12, in the assay on MOLT-4 and with NCI-H23 was > 100 µM (inactive) each time. Further, the GI50 with OVCAR-3, in the assay with RPMI-8226, in the assay with SK-MEL-28, with SK-MEL-2, with SK-MEL-5 and in the assay with UACC-257 was > 100 µM (inactive) throughout. Also, the GI50 with UACC-62 is > 100 µM (inactive).

As to `O=C(c1ccc(Cl)cc1)N1CCN=C1c1cc2ccccc2c2ccccc12`, the GI50 in the assay with A549 is 15.9 µM (inactive); in the assay with COLO 205, 16 µM (inactive); in the assay on EKVX it was 13.8 µM (inactive); with HCT-116, 14.9 µM (inactive); in the assay with HCT-15, 16.6 µM; in the assay with HL-60, 21.8 µM (inactive). Besides, the GI50 in the assay on HOP-62 was 18.8 µM (inactive); with HOP-92, 11.6 µM (inactive); with IGROV-1, 14.3 µM (inactive); in the assay on KM12 it was 15.8 µM (inactive); in the assay on MOLT-4 it was 33.7 µM (inactive); with NCI-H23, 17.6 µM (inactive). The GI50 in the assay with OVCAR-3 was 17.6 µM (inactive); in the assay with RPMI-8226, 19.8 µM (inactive); in the assay on SK-MEL-28, 15.5 µM (inactive); with SK-MEL-2 it was 15.6 µM (inactive); in the assay on SK-MEL-5 it was 14.8 µM (inactive); in the assay on UACC-257 it was 17.5 µM (inactive). Moreover, the GI50 in the assay on UACC-62 is 14.5 µM (inactive).

Regarding `COc1cc2c3c(n(C)c(=O)c2cc1OC)-c1cc2c(cc1/C3=C/CCCCBr)OCO2`, the GI50 is > 100 µM (inactive) with A549; > 100 µM (inactive) in the assay with COLO 205; > 100 µM (inactive) in the assay on EKVX; more than 100 µM with HCT-15; 30.3 µM (inactive) with HL-60; 57.7 µM (inactive) in the assay on HOP-92. Moreover, the GI50 in the assay with IGROV-1 is 6.56 µM (inactive); with KM12 it was > 100 µM (inactive); with MOLT-4, 4.51 µM (inactive); in the assay on NCI-H23 it was 24.8 µM (inactive); in the assay on RPMI-8226, 2.54 µM (inactive); with SK-MEL-28, > 100 µM (inactive). The GI50 in the assay with SK-MEL-2 was > 100 µM (inactive); with SK-MEL-5, 54 µM (inactive); in the assay on UACC-257, > 100 µM (inactive).

`COc1cc(Nc2c3ccccc3nc3ccccc23)ccc1NS(C)(=O)=O`: the GI50 is 2.42 µM (inactive) in the assay with A549; 3.48 µM (inactive) in the assay on COLO 205; 10 µM (inactive) in the assay with EKVX; 14.2 µM (inactive) in the assay with HCC 2998; 3.27 µM (inactive) with HCT-116; 4.79 µM (inactive) in the assay on HL-60. The GI50 was 7.6 µM (inactive) in the assay on HOP-62; 10.4 µM (inactive) in the assay on IGROV-1; 6.97 µM (inactive) in the assay on KM12; 40.7 µM (inactive) in the assay on MOLT-4; > 10 µM (inactive) with NCI-H23; 6.53 µM (inactive) in the assay on OVCAR-3. Besides, the GI50 is 2.83 µM (inactive) with RPMI-8226; 7.52 µM (inactive) in the assay on SK-MEL-28; 7.53 µM (inactive) with SK-MEL-2; 6.53 µM (inactive) in the assay on SK-MEL-5; 11.9 µM (inactive) in the assay with UACC-257; 6.61 µM (inactive) in the assay on UACC-62.
